Measurements published in PubChem BioAssay (NCI).
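Step 1: Grow cells in 96-well plates. Step 2: Expose to compound for 48 hours at 5 concentrations. Step 3: Interpolate endpoints linearly; if unreached, use highest concentration. GI50: concentration for 50% inhibition of growth. TGI is the concentration that stops growth completely.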

Legend:
Assay in all cases: NCI-60 cell line screen, 48 h
786-0 renal = tested on: 786-0 renal
A498 renal = tested on: A498 renal
A549 NSCLC = tested on: A549 NSCLC
ACHN renal = tested on: ACHN renal
BT-549 breast = tested on: BT-549 breast
CAKI-1 renal = tested on: CAKI-1 renal
CCRF-CEM leukemia = tested on: CCRF-CEM leukemia
COLO 205 colon = tested on: COLO 205 colon
DU-145 prostate = tested on: DU-145 prostate
EKVX NSCLC = tested on: EKVX NSCLC
HCC-2998 colon = tested on: HCC-2998 colon
HCT-116 colon = tested on: HCT-116 colon
HCT-15 colon = tested on: HCT-15 colon
HL-60(TB) leukemia = tested on: HL-60(TB) leukemia
HOP-62 NSCLC = tested on: HOP-62 NSCLC
HOP-92 NSCLC = tested on: HOP-92 NSCLC
HS 578T breast = tested on: HS 578T breast
HT29 colon = tested on: HT29 colon
IGROV1 ovarian = tested on: IGROV1 ovarian
K-562 leukemia = tested on: K-562 leukemia
KM12 colon = tested on: KM12 colon
LOX IMVI melanoma = tested on: LOX IMVI melanoma
M14 melanoma = tested on: M14 melanoma
MALME-3M melanoma = tested on: MALME-3M melanoma
MCF7 breast = tested on: MCF7 breast
MDA-MB-231 breast = tested on: MDA-MB-231 breast
MDA-MB-435 = tested on: MDA-MB-435
MDA-MB-468 breast = tested on: MDA-MB-468 breast
MOLT-4 leukemia = tested on: MOLT-4 leukemia
NCI-H226 lung = tested on: NCI-H226 lung
NCI-H23 lung = tested on: NCI-H23 lung
NCI-H460 lung = tested on: NCI-H460 lung
NCI-H522 lung = tested on: NCI-H522 lung
NCI/ADR-RES ovarian = tested on: NCI/ADR-RES ovarian
OVCAR-3 ovarian = tested on: OVCAR-3 ovarian
OVCAR-4 ovarian = tested on: OVCAR-4 ovarian
OVCAR-5 ovarian = tested on: OVCAR-5 ovarian
OVCAR-8 ovarian = tested on: OVCAR-8 ovarian
PC-3 prostate = tested on: PC-3 prostate
RPMI-8226 leukemia = tested on: RPMI-8226 leukemia
SF-268 CNS = tested on: SF-268 CNS
SF-295 CNS = tested on: SF-295 CNS
SF-539 CNS = tested on: SF-539 CNS
SK-MEL-2 melanoma = tested on: SK-MEL-2 melanoma
SK-MEL-28 melanoma = tested on: SK-MEL-28 melanoma
SK-MEL-5 melanoma = tested on: SK-MEL-5 melanoma
SK-OV-3 ovarian = tested on: SK-OV-3 ovarian
SN12C renal = tested on: SN12C renal
SNB-19 CNS = tested on: SNB-19 CNS
SNB-75 CNS = tested on: SNB-75 CNS
SR leukemia = tested on: SR leukemia
SW-620 colon = tested on: SW-620 colon
T-47D breast = tested on: T-47D breast
TK-10 renal = tested on: TK-10 renal
U251 CNS = tested on: U251 CNS
UACC-257 melanoma = tested on: UACC-257 melanoma
UACC-62 melanoma = tested on: UACC-62 melanoma
UO-31 renal = tested on: UO-31 renal

SMILES: COc1cc(/C=C/C(=O)c2ccccc2)ccc1Oc1nc(Nc2ccc(F)cc2)nc(N(C)C)n1
- GI50 (786-0 renal): 20.5 µM
- TGI (786-0 renal): 87 µM
- GI50 (A498 renal): 27 µM
- TGI (A498 renal): > 100 µM
- GI50 (A549 NSCLC): 11.7 µM
- TGI (A549 NSCLC): > 100 µM
- GI50 (ACHN renal): 8.29 µM
- TGI (ACHN renal): 37.4 µM
- GI50 (BT-549 breast): 12 µM
- TGI (BT-549 breast): 28.6 µM
- GI50 (CAKI-1 renal): 5.72 µM
- TGI (CAKI-1 renal): > 100 µM
- GI50 (CCRF-CEM leukemia): 3.38 µM
- TGI (CCRF-CEM leukemia): > 100 µM
- GI50 (COLO 205 colon): 15.1 µM
- TGI (COLO 205 colon): > 100 µM
- GI50 (DU-145 prostate): 27.3 µM
- TGI (DU-145 prostate): > 100 µM
- GI50 (EKVX NSCLC): 4.73 µM
- TGI (EKVX NSCLC): > 100 µM
- GI50 (HCC-2998 colon): 12.9 µM
- TGI (HCC-2998 colon): 76.5 µM
- GI50 (HCT-116 colon): 3.21 µM
- TGI (HCT-116 colon): 12.9 µM
- GI50 (HCT-15 colon): 3.31 µM
- TGI (HCT-15 colon): 12.9 µM
- GI50 (HL-60(TB) leukemia): 8.38 µM
- TGI (HL-60(TB) leukemia): 67.1 µM
- GI50 (HOP-62 NSCLC): 26.6 µM
- TGI (HOP-62 NSCLC): > 100 µM
- GI50 (HOP-92 NSCLC): 2.08 µM
- TGI (HOP-92 NSCLC): 12.9 µM
- GI50 (HS 578T breast): 5.44 µM
- TGI (HS 578T breast): 56.4 µM
- GI50 (HT29 colon): 4.36 µM
- TGI (HT29 colon): 19 µM
- GI50 (IGROV1 ovarian): 18.7 µM
- TGI (IGROV1 ovarian): > 100 µM
- GI50 (K-562 leukemia): 3.57 µM
- TGI (K-562 leukemia): > 100 µM
- GI50 (KM12 colon): 14.9 µM
- TGI (KM12 colon): > 100 µM
- GI50 (LOX IMVI melanoma): 1.6 µM
- TGI (LOX IMVI melanoma): 3.15 µM
- GI50 (M14 melanoma): 13 µM
- TGI (M14 melanoma): 37.8 µM
- GI50 (MALME-3M melanoma): 15.9 µM
- TGI (MALME-3M melanoma): 39.6 µM
- GI50 (MCF7 breast): 3.08 µM
- TGI (MCF7 breast): 15 µM
- GI50 (MDA-MB-231 breast): 6.92 µM
- TGI (MDA-MB-231 breast): 21.9 µM
- GI50 (MDA-MB-435): 7.39 µM
- TGI (MDA-MB-435): 28.4 µM
- GI50 (MDA-MB-468 breast): 3.21 µM
- TGI (MDA-MB-468 breast): 19.9 µM
- GI50 (MOLT-4 leukemia): 2.56 µM
- TGI (MOLT-4 leukemia): > 100 µM
- GI50 (NCI-H226 lung): 4.94 µM
- TGI (NCI-H226 lung): 21.5 µM
- GI50 (NCI-H23 lung): 12.6 µM
- TGI (NCI-H23 lung): 51.4 µM
- GI50 (NCI-H460 lung): 9.14 µM
- TGI (NCI-H460 lung): 30 µM
- GI50 (NCI-H522 lung): 5.15 µM
- TGI (NCI-H522 lung): 59.2 µM
- GI50 (NCI/ADR-RES ovarian): 7.04 µM
- TGI (NCI/ADR-RES ovarian): 22.6 µM
- GI50 (OVCAR-3 ovarian): 11.8 µM
- TGI (OVCAR-3 ovarian): > 100 µM
- GI50 (OVCAR-4 ovarian): 5.85 µM
- TGI (OVCAR-4 ovarian): 41.7 µM
- GI50 (OVCAR-5 ovarian): 13.9 µM
- TGI (OVCAR-5 ovarian): 48.3 µM
- GI50 (OVCAR-8 ovarian): 5.9 µM
- TGI (OVCAR-8 ovarian): 26.5 µM
- GI50 (PC-3 prostate): 10 µM
- TGI (PC-3 prostate): > 100 µM
- GI50 (RPMI-8226 leukemia): 2.83 µM
- TGI (RPMI-8226 leukemia): 33.9 µM
- GI50 (SF-268 CNS): 12.2 µM
- TGI (SF-268 CNS): > 100 µM
- GI50 (SF-295 CNS): 6.89 µM
- TGI (SF-295 CNS): 48.5 µM
- GI50 (SF-539 CNS): 13.8 µM
- TGI (SF-539 CNS): 26.7 µM
- GI50 (SK-MEL-2 melanoma): 4.68 µM
- TGI (SK-MEL-2 melanoma): 20.7 µM
- GI50 (SK-MEL-28 melanoma): 12.2 µM
- TGI (SK-MEL-28 melanoma): 32.1 µM
- GI50 (SK-MEL-5 melanoma): 6.21 µM
- TGI (SK-MEL-5 melanoma): 34.2 µM
- GI50 (SK-OV-3 ovarian): 48.6 µM
- TGI (SK-OV-3 ovarian): > 100 µM
- GI50 (SN12C renal): 7.32 µM
- TGI (SN12C renal): 22.1 µM
- GI50 (SNB-19 CNS): 10.2 µM
- TGI (SNB-19 CNS): 27.6 µM
- GI50 (SNB-75 CNS): 4.7 µM
- TGI (SNB-75 CNS): 95.9 µM
- GI50 (SR leukemia): 2.9 µM
- TGI (SR leukemia): > 100 µM
- GI50 (SW-620 colon): 1.81 µM
- TGI (SW-620 colon): 3.97 µM
- GI50 (T-47D breast): 3.36 µM
- TGI (T-47D breast): > 100 µM
- GI50 (TK-10 renal): 18 µM
- TGI (TK-10 renal): > 100 µM
- GI50 (U251 CNS): 2.84 µM
- TGI (U251 CNS): 13.4 µM
- GI50 (UACC-257 melanoma): 6.44 µM
- TGI (UACC-257 melanoma): 77.2 µM
- GI50 (UACC-62 melanoma): 4.99 µM
- TGI (UACC-62 melanoma): 24.2 µM
- GI50 (UO-31 renal): 4.4 µM
- TGI (UO-31 renal): > 100 µM
